Test results taken from patent US20260053834A1, “COVALENT MODIFIERS OF AKT1 AND USES THEREOF” (Terremoto Biosciences, Inc., priority 2023, published 2026).

Key:
[1] = system: LAPC4 prostate cancer cells, which express the AKT1 E17K allele; test: Antiproliferative effects in LAPC4 cells (CellTiter Glo, 72 h); format: cell-based; conditions: Homo sapiens, LAPC4, 72 h, read-out: LAPC4 proliferation IC50: GeoMean IC50
How it was run: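 IC50 values come from Hill-equation fitting of luminescence (cellular ATP) after 72 h compound exposure. Treated wells held 1,000 cells each, with compound delivered as DMSO dilutions. Culture medium was IMDM plus 12% FBS.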

[2] = biological target: T1, AKT1 WT (Homo sapiens, UniProt P31749); test: Live cell target engagement by NanoBRET competitive probe displacement, AKT1 WT; format: binding; conditions: transfected HEK293 cells, 2 h at 37° C., read-out: AKT1 WT IC50: GeoMean IC50
T1 construct: expressed in transfected cells; host or cells: HEK293

[3] = biological target: T2, AKT1 E17K (Homo sapiens, UniProt P31749, E17K); test: Live cell target engagement by NanoBRET competitive probe displacement, AKT1 E17K; format: binding; conditions: transfected HEK293 cells, 2 h at 37° C., read-out: AKT1 E17K IC50: GeoMean IC50
T2 construct: expressed in transfected cells; host or cells: HEK293

[4] = biological target: T3, AKT2 (Homo sapiens, UniProt P31751); test: Live cell target engagement by NanoBRET competitive probe displacement, AKT2; format: binding; conditions: transfected HEK293 cells, 2 h at 37° C., read-out: AKT2 IC50: GeoMean IC50
T3 construct: expressed in transfected cells; host or cells: HEK293
T3 sequence (P31751 whole entry): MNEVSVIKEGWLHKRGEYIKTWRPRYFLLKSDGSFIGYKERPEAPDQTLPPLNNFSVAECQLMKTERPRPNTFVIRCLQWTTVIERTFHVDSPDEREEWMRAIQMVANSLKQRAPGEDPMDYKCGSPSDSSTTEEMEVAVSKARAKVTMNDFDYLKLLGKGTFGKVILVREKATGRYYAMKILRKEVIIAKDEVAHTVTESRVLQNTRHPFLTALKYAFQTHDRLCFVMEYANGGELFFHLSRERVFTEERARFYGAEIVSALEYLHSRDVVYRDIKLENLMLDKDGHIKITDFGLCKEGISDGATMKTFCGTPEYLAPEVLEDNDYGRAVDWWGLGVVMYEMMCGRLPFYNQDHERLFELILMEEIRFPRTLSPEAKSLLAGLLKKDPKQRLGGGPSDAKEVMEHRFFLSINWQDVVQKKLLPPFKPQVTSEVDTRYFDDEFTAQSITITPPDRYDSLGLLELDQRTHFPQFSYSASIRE

T2 sequence (P31749 whole entry E17K): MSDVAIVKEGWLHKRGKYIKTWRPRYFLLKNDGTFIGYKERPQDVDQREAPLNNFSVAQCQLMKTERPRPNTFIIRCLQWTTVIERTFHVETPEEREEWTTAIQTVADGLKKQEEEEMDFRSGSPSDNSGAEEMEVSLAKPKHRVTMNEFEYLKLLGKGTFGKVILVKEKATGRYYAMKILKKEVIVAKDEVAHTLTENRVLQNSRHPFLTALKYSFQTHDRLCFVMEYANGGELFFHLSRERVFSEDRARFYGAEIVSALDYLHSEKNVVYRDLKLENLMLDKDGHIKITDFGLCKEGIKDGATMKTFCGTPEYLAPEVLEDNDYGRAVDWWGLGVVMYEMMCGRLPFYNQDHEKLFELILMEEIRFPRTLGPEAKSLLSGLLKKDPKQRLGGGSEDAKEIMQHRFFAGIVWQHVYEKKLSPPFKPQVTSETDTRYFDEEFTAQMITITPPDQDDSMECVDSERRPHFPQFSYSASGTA
T1 sequence (P31749 whole entry): as the sequence (P31749 whole entry E17K) above, with K17E counted along it

IC50 [1] [nM] | IC50 [2] [nM] | IC50 [3] [nM] | IC50 [4] [nM] | SMILES
100 to 2000 | 100 to 2000 | 10 to 100 | 100 to 2000 | CN1CCN(c2cc(-n3cccn3)nc3c2nc(-c2cccnc2N)n3-c2ccc3c(c2)CC[C@@H]3NC(=O)c2ccc(O)c(C=O)c2)CC1 [Example 223, N-[(1S)-5-[2-(2-aminopyridin-3-yl)-7-(4-methylpiperazin-1-yl)-5-(pyrazol-1-yl)imidazo[4,5-b]pyridin-3-yl]-2,3-dihydro-1H-inden-1-yl]-3-formyl-4-hydroxybenzamide]
10 to 100 | 10 to 100 | 10 to 100 | 100 to 2000 | Nc1ncccc1-c1nc2ccc(-c3cc4n(n3)CCC4)nc2n1-c1ccc2c(c1)CC[C@@H]2NC(=O)c1cc(C=O)c(O)cc1F [Example 247, N-[(1S)-5-[2-(2-aminopyridin-3-yl)-5-{4H,5H,6H-pyrrolo[1,2-b]pyrazol-2-yl}imidazo[4,5-b]pyridin-3-yl]-2,3-dihydro-1H-inden-1-yl]-2-fluoro-5-formyl-4-hydroxybenzamide]
100 to 2000 | 10 to 100 | 10 to 100 | 100 to 2000 | Nc1ncccc1-c1nc2ccc(-n3cccn3)nc2n1-c1ccc2c(c1)CC[C@@H]2NC(=O)c1cc(Cl)c(O)c(C=O)c1 [Example 93, N-[(1S)-5-[2-(2-aminopyridin-3-yl)-5-(pyrazol-1-yl)imidazo[4,5-b]pyridin-3-yl]-2,3-dihydro-1H-inden-1-yl]-3-chloro-5-formyl-4-hydroxybenzamide]
10 to 100 | < 10 | < 10 | < 10 | Nc1ncccc1-c1nc2ccc(-c3ccccc3)nc2n1-c1ccc2c(c1)CC[C@@H]2NC(=O)c1cc(C=O)c2[nH]cnc2c1 [Example 162, N-[(1S)-5-[2-(2-aminopyridin-3-yl)-5-phenylimidazo[4,5-b]pyridin-3-yl]-2,3-dihydro-1H-inden-1-yl]-7-formyl-1H-1,3-benzodiazole-5-carboxamide]
< 10 | 10 to 100 | < 10 | 10 to 100 | Nc1ncccc1-c1nc2ccc(-c3ccccc3)nc2n1-c1ccc2c(c1)CC[C@@H]2NC(=O)c1cc(C=O)c2[nH]ncc2c1 [Example 35, N-[(1S)-5-[2-(2-aminopyridin-3-yl)-5-phenylimidazo[4,5-b]pyridin-3-yl]-2,3-dihydro-1H-inden-1-yl]-7-formyl-1H-indazole-5-carboxamide]
10 to 100 | 10 to 100 | 10 to 100 | 100 to 2000 | CS(=O)(=O)Nc1ccc(C(=O)N[C@H]2CCc3cc(-n4c(-c5cccnc5N)nc5ccc(-n6cccn6)nc54)ccc32)cc1C=O [Example 86, N-[(1S)-5-[2-(2-aminopyridin-3-yl)-5-(pyrazol-1-yl)imidazo[4,5-b]pyridin-3-yl]-2,3-dihydro-1H-inden-1-yl]-3-formyl-4-methanesulfonamidobenzamide]
10 to 100 | 10 to 100 | 10 to 100 | 10 to 100 | Cc1cc(-n2cccn2)nc2c1nc(-c1cccnc1N)n2-c1ccc2c(c1)CC[C@@H]2NC(=O)c1ccc(O)c(C=O)c1 [Example 131, (S)—N-(5-(2-(2-aminopyridin-3-yl)-7-methyl-5-(1H-pyrazol-1-yl)-3H-imidazo[4,5-b]pyridin-3-yl)-2,3-dihydro-1H-inden-1-yl)-3-formyl-4-hydroxybenzamide]
100 to 2000 | 10 to 100 | 10 to 100 | 10 to 100 | CCc1cc(-n2cccn2)nc2c1nc(-c1cccnc1N)n2-c1ccc2c(c1)CC[C@@H]2NC(=O)c1ccc(O)c(C=O)c1 [Example 197, N-[(1S)-5-[2-(2-aminopyridin-3-yl)-7-ethyl-5-(pyrazol-1-yl)imidazo[4,5-b]pyridin-3-yl]-2,3-dihydro-1H-inden-1-yl]-3-formyl-4-hydroxybenzamide]
100 to 2000 | 10 to 100 | 10 to 100 | 100 to 2000 | Cc1cnn(-c2ccc3nc(-c4cccnc4N)n(-c4ccc5c(c4)CC[C@@H]5NC(=O)c4ccc(O)c(C=O)c4)c3n2)c1 [Example 77, (S)—N-(5-(2-(2-aminopyridin-3-yl)-5-(4-methyl-1H-pyrazol-1-yl)-3H imidazo[4,5-b]pyridin-3-yl)-2,3-dihydro-1H-inden-1-yl)-3-formyl-4-hydroxybenzamide]
100 to 2000 | 100 to 2000 | 100 to 2000 | 100 to 2000 | Nc1ncccc1-c1nc2c(-n3cn[nH]c3=O)cc(-n3cccn3)nc2n1-c1ccc2c(c1)CC[C@@H]2NC(=O)c1ccc(O)c(C=O)c1 [Example 233, N-[(1S)-5-[2-(2-aminopyridin-3-yl)-7-(3-oxo-2H-1,2,4-triazol-4-yl)-5-(pyrazol-1-yl)imidazo[4,5-b]pyridin-3-yl]-2,3-dihydro-1H-inden-1-yl]-3-formyl-4-hydroxybenzamide]
100 to 2000 | 100 to 2000 | 10 to 100 | ≥ 2000 | N#Cc1ccn(-c2ccc3nc(-c4cccnc4N)n(-c4ccc5c(c4)CC[C@@H]5NC(=O)c4ccc(O)c(C=O)c4)c3n2)n1 [Example 108, N-[(1S)-5-[2-(2-aminopyridin-3-yl)-5-(3-cyanopyrazol-1-yl)imidazo[4,5-b]pyridin-3-yl]-2,3-dihydro-1H-inden-1-yl]-3-formyl-4-hydroxybenzamide]
100 to 2000 | 100 to 2000 | 100 to 2000 | ≥ 2000 | Nc1ncccc1-c1nc2ccc(-n3cccn3)nc2n1-c1ccc2c(c1)C1CC1C2NC(=O)c1ccc(O)c(C=O)c1 (centres unmarked) [Example 252, N-(3-(2-(2-aminopyridin-3-yl)-5-(1H-pyrazol-1-yl)-3H-imidazo[4,5-b]pyridin-3-yl)-1,1a,6,6a-tetrahydrocyclopropa[a]inden-6-yl)-3-formyl-4-hydroxybenzamide]
≥ 2000 | 10 to 100 | 10 to 100 | 10 to 100 | C#Cc1ccc(C(=O)N[C@H]2CCc3cc(-n4c(-c5cccnc5N)nc5ccc(-n6cccn6)nc54)ccc32)cc1C=O [Example 155, N-[(1S)-5-[2-(2-aminopyridin-3-yl)-5-(pyrazol-1-yl)imidazo[4,5-b]pyridin-3-yl]-2,3-dihydro-1H-inden-1-yl]-4-ethynyl-3-formylbenzamide]
100 to 2000 | 100 to 2000 | 100 to 2000 | 100 to 2000 | Nc1ncccc1-c1nc2ccc(-c3cn[nH]c3)nc2n1-c1ccc2c(c1)CC[C@@H]2NC(=O)c1ccc(O)c(C=O)c1 [Example 67, N-[(1S)-5-[2-(2-aminopyridin-3-yl)-5-(1H-pyrazol-4-yl)imidazo[4,5-b]pyridin-3-yl]-2,3-dihydro-1H-inden-1-yl]-3-formyl-4-hydroxybenzamide]
100 to 2000 | 10 to 100 | 10 to 100 | 100 to 2000 | Nc1ncccc1-c1nc2c(C3CC3)cc(-n3cccn3)nc2n1-c1ccc2c(c1)CC[C@@H]2NC(=O)c1ccc(O)c(C=O)c1 [Example 230, N-[(1S)-5-[2-(2-aminopyridin-3-yl)-7-cyclopropyl-5-(pyrazol-1-yl)imidazo[4,5-b]pyridin-3-yl]-2,3-dihydro-1H-inden-1-yl]-3-formyl-4-hydroxybenzamide]
100 to 2000 | 100 to 2000 | 10 to 100 | 100 to 2000 | Nc1ncccc1-c1nc2ccc(-c3cccc(F)c3)nc2n1-c1ccc2c(c1)CC[C@@H]2NC(=O)c1ccc(O)c(C=O)c1 [Example 26, N-[(1S)-5-[2-(2-aminopyridin-3-yl)-5-(3-fluorophenyl)imidazo[4,5-b]pyridin-3-yl]-2,3-dihydro-1H-inden-1-yl]-3-formyl-4-hydroxybenzamide]
100 to 2000 | 10 to 100 | 10 to 100 | 100 to 2000 | Nc1ncccc1-c1nc2c(N3CCC3)cc(-n3cccn3)nc2n1-c1ccc2c(c1)CC[C@@H]2NC(=O)c1ccc(O)c(C=O)c1 [Example 231, N-[(1S)-5-[2-(2-aminopyridin-3-yl)-7-(azetidin-1-yl)-5-(pyrazol-1-yl)imidazo[4,5-b]pyridin-3-yl]-2,3-dihydro-1H-inden-1-yl]-3-formyl-4-hydroxybenzamide]
10 to 100 | 10 to 100 | 10 to 100 | 100 to 2000 | Nc1ncccc1-c1nc2ccc(-c3ccc(F)cc3)nc2n1-c1ccc2c(c1)CC[C@@H]2NC(=O)c1ccc(O)c(C=O)c1 [Example 20, (S)—N-(5-(2-(2-aminopyridin-3-yl)-5-(4-fluorophenyl)-3H-imidazo[4,5-b]pyridin-3-yl)-2,3-dihydro-1H-inden-1-yl)-3-formyl-4-hydroxybenzamide]
100 to 2000 | 10 to 100 | 10 to 100 | 100 to 2000 | Nc1ncccc1-c1nc2c(F)cc(-n3cccn3)nc2n1-c1ccc2c(c1)CC[C@@H]2NC(=O)c1ccc(O)c(C=O)c1 [Example 213, N-[(1S)-5-[2-(2-aminopyridin-3-yl)-7-fluoro-5-(pyrazol-1-yl)imidazo[4,5-b]pyridin-3-yl]-2,3-dihydro-1H-inden-1-yl]-3-formyl-4-hydroxybenzamide]
10 to 100 | 10 to 100 | 10 to 100 | 100 to 2000 | Nc1ncccc1-c1nc2c(OC(F)F)cc(-n3cccn3)nc2n1-c1ccc2c(c1)CC[C@@H]2NC(=O)c1ccc(O)c(C=O)c1 [Example 225, N-[(1S)-5-[2-(2-aminopyridin-3-yl)-7-(difluoromethoxy)-5-(pyrazol-1-yl)imidazo[4,5-b]pyridin-3-yl]-2,3-dihydro-1H-inden-1-yl]-3-formyl-4-hydroxybenzamide]
